According to PubChem BioAssay AID1053168 (Broad Institute, 2014):
The source made the active and inactive calls. The rule behind the calls is not given here.

Legend:
[1] = Vaccinia infected cells, stage specific inhibitors, mcherry venus reporter fluorescence, confirmatory dose response (AID 1053168); settings: Vaccinia-infected cells, mCherry/Venus stage reporter fluorescence; at 21 µM (top of the series)
[2] = system: Vaccinia-infected cells, mCherry/Venus stage reporter fluorescence; experiment: as above
[3] = measured here: Venus reporter AC50
[4] = measured here: mCherry reporter AC50

N#Cc1ccc(-c2ccc3c(c2)[C@@H]2[C@@H](CCN2C(=O)C2CCCCC2)[C@@H](CO)N3)cc1
activity change, negative = inhibition [1]: -10.8% (inactive)
AC50 [2, 3]: > 42 µM

C[C@@H](O)C#Cc1ccc2c(c1)O[C@H](CN(C)Cc1ccccc1)[C@@H](C)CN([C@@H](C)CO)S2(=O)=O
activity change, negative = inhibition [1]: -5.1% (inactive)
AC50 [2, 4]: > 42 µM

C[C@H](O)C#Cc1ccc2c(c1)O[C@H](CN(C)Cc1ccc(-c3ccccc3)cc1)[C@H](C)CN([C@@H](C)CO)S2(=O)=O
activity change, negative = inhibition [1]: -17.3% (inactive)
AC50 [2, 3]: > 42 µM
AC50 [2, 4]: > 42 µM

C[C@H](O)C#Cc1ccc2c(c1)O[C@@H](CN(C)Cc1ccccc1)[C@H](C)CN([C@H](C)CO)S2(=O)=O
activity change, negative = inhibition [1]: -12.7% (inactive)
AC50 [2, 3]: > 42 µM
AC50 [2, 4]: > 42 µM

C[C@H](CO)N1C[C@H](C)[C@@H](CN(C)Cc2ccc(-c3ccccc3)cc2)Oc2cc(C#C[C@@H](C)O)ccc2S1(=O)=O
activity change, negative = inhibition [1]: -19.5% (inactive)
AC50 [2, 4]: > 42 µM

CCCNC(=O)N(C)C[C@@H]1Oc2ncc(C#CC3CCCCC3)cc2C(=O)N([C@H](C)CO)C[C@@H]1C
activity change, negative = inhibition [1]: -19.2% (inactive)
AC50 [2, 3]: > 42 µM

CN1c2ccc(-c3ccc(C#N)cc3)cc2[C@@H]2[C@@H](CCN2C(=O)C2CCCCC2)[C@H]1CO
activity change, negative = inhibition [1]: -26% (inactive)
AC50 [2, 3]: > 42 µM

C[C@H](O)C#Cc1ccc2c(c1)O[C@@H](CN(C)Cc1ccc(-c3ccccc3)cc1)[C@H](C)CN([C@H](C)CO)S2(=O)=O
activity change, negative = inhibition [1]: -20.1% (inactive)
AC50 [2, 4]: > 42 µM

C[C@H](O)C#Cc1ccc2c(c1)O[C@@H](CN(C)Cc1ccc(-c3ccccc3)cc1)[C@@H](C)CN([C@@H](C)CO)S2(=O)=O
activity change, negative = inhibition [1]: -12.2% (inactive)
AC50 [2, 3]: > 42 µM
AC50 [2, 4]: > 42 µM

OC[C@H]1Nc2ccc(-c3cccc(F)c3)cc2[C@H]2[C@@H]1CCN2Cc1ccc(F)cc1
activity change, negative = inhibition [1]: -30.8% (inactive)
AC50 [2, 4]: > 42 µM

C[C@H](O)C#Cc1ccc2c(c1)O[C@H](CN(C)Cc1ccccc1)[C@@H](C)CN([C@H](C)CO)S2(=O)=O
activity change, negative = inhibition [1]: -3.87% (inactive)
AC50 [2, 4]: > 42 µM

C[C@H](O)C#Cc1ccc2c(c1)O[C@@H](CN(C)Cc1ccccc1)[C@H](C)CN([C@@H](C)CO)S2(=O)=O
activity change, negative = inhibition [1]: -8.31% (inactive)
AC50 [2, 3]: > 42 µM
AC50 [2, 4]: > 42 µM

C[C@H]1CCCCO[C@H](CN(C)S(=O)(=O)c2ccc(Cl)cc2)[C@@H](C)CN([C@@H](C)CO)C(=O)c2cc(NC(=O)Nc3ccc(F)cc3)ccc2O1
activity change, negative = inhibition [1]: -17.8% (inactive)
AC50 [2, 3]: > 42 µM
AC50 [2, 4]: > 42 µM

C[C@H](CO)N1C[C@H](C)[C@H](CN(C)Cc2ccc(-c3ccccc3)cc2)Oc2cc(C#C[C@@H](C)O)ccc2S1(=O)=O
activity change, negative = inhibition [1]: -20% (inactive)
AC50 [2, 3]: > 42 µM
AC50 [2, 4]: > 42 µM
